Key:
Bacteroides = assay: Indole production suppressing effect in viable bacterium; format: cell-based; conditions: 5 mM L-Tryptophan assay medium, anaerobic, indole in culture supernatant, read-out: Bacteroides Indole Production Inhibitory Activity(IC50)
Protocol: The effect of a tryptophanase inhibitory compound to suppress indole production from a viable bacterium can be evaluated through the following operation.
When E. coli (Eschelicia coli) is used as a strain known to produce indole, the strain is cultured in an LB medium at 37° C. for 12 to 18 hours under anaerobic conditions, and then, suspended in an assay medium (5 mM L-Tryptophan/PBS(+)/25 mM HEPES (pH8)) in such a manner as to obtain O.D. of about 0.3. When bacteroides is used, the strain is cultured in a modified GAM medium at 37° C. for 12 to 18 hours under anaerobic conditions, and then suspended in an assay medium (5 mM L-Tryptophan/PBS(+)/25 mM HEPES (pH8)) in such a manner as to obtain O.D. of about 1.1. The thus obtained viable bacterial suspension prepared to have a final concentration of a compound of 1 μM to 10 mM is dispensed at 200 μL per well into a 96-well plate and cultured at 37° C. for 2 to 4 hours under anaerobic conditions, O.D., an ATP concentration (that can be quantitatively determined by using BacTiter-Glo (Promega Corporation)) and an indole concentration in the culture supernatant (that can be quantitatively determined by utilizing Ehrlich reaction) are measured. The effect of the tryptophanase inhibitory compound to suppress indole production from a viable bacterium can be evaluated depending on the degree of lowering of the indole concentration in the culture supernatant. It can be checked whether or not the effect is derived from a function other than tryptophanase inhibition, such as a bactericidal function or a bacterial growth inhibitory function, depending on lowering of the O.D. or reduction in the ATP concentration or by performing a generally practiced antibacterial activity test (a MIC (minimum growth inhibition concentration) test) using levofloxacin or the like as a positive control.
The activities of inhibiting indole production of the compounds of the respective examples shown in Table 13 were measured by the above-described method using Bacteroides to evaluate the effect of inhibiting indole production.

[1] = target: tryptophanase of Bacteroides tetaiotaomicron (Bacteroides thetaiotaomicron, UniProt Q8A7N2); assay: Tryptophanase enzyme inhibitory activity (LDH-coupled NADH loss); format: biochemical; conditions: 10 mM L-tryptophan, 30 min preincubation at 37° C., absorbance at 340 nm
Sequence of tryptophanase of Bacteroides tetaiotaomicron (Q8A7N2 entry or part of it, change not shown): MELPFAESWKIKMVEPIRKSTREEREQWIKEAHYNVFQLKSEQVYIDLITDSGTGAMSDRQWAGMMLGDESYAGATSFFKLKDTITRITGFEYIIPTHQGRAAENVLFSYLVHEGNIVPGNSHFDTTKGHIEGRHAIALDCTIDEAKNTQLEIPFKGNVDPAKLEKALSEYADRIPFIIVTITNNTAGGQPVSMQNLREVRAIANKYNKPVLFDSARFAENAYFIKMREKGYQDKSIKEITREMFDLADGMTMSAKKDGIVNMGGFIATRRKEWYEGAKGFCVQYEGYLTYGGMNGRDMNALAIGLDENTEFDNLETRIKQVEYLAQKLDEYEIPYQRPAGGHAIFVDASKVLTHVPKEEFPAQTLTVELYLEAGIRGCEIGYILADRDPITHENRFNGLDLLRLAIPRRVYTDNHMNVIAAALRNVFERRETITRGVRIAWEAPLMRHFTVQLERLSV
Protocol: Tryptophanase inhibitory activity was evaluated by a method using lactate dehydrogenase (LDH). The reaction time-dependent reduction in NADH conjugated with the enzymatic reaction, with LDH, of pyruvic acid produced through the enzymatic reaction of L-tryptophan as a substrate with tryptophanase, was measured with a spectrophotometer (Phillips-R S et al., Biochemistry, 23, 6228-6234 (1984)). Enzyme inhibitory activity obtained without adding a test compound (by adding DMSO alone) in the presence of tryptophanase was used as a control. As the enzyme, tryptophanase of Bacteroides tetaiotaomicron (Genbank accession number: HC914434.1) was used.
A test compound solution was prepared by dissolving each test compound in DMSO at concentrations (from 30 mM to 30 nM at 10-fold common ratio). LDH, NADH and L-tryptophan were dissolved, using distilled water, respectively to concentrations of 80 units/mL, 10 mM and 50 mM. Bacteroides tryptophanase was prepared to 30 mg/mL. A potassium phosphate buffer was used as the buffer.
A reaction solution A was dispensed at 284.8 μL per well into a 96-well plate, and the test compound solution was added at 3.2 μL per well to obtain a final concentration of 1/100 (reaction solution B). The reaction solution B was incubated at 37° C. for 30 minutes, L-tryptophan was added thereto at 32 μL per well to obtain a final concentration of […] (reaction solution C), and the enzyme reaction was performed at 37° C. over 30 minutes with absorbance at 340 nm measured for monitoring the NADH loss. Based on the NADH loss, the tryptophanase inhibitory activity of the compound was evaluated.

plasma indoxyl sulfate = assay: Effect of reducing plasma indoxyl sulfate concentration in mice; format: in vivo; conditions: oral gavage, plasma 6 hours after L-tryptophan
Protocol: An effect of a tryptophanase inhibitory compound to reduce plasma indoxyl sulfate concentration in a mouse can be evaluated through the following operation.
After fasting male BALB/c mice overnight, a tryptophanase inhibitory compound dissolved or suspended at a concentration of 0.01 to 10 mg/mL in 0.5% methylcellulose (MC) solution used as a solvent and 0.5% MC solution are orally administered by gavage at a volume of 10 mL/kg respectively to test compound groups and to a solvent control group. 30 minutes after the administration of the test compound or the solvent, L-tryptophan, that is, a substrate of tryptophanase, is orally administered by gavage at a dose of 1 to 3 g/kg. The L-tryptophan is suspended in a 0.5% tragacanth solution. For 12 hours after the administration of the L-tryptophan, blood is collected over time from a tail vein by using a hematocrit tube. The thus obtained blood is centrifuged at 11,000 rpm for 5 minutes to collect plasma, and the indoxyl sulfate concentration in the plasma is measured singly by liquid chromatography (fluorescence detection) or its combination with a mass spectrometer used subsequently. Plasma indoxyl sulfate concentration in the test compound group against the plasma indoxyl sulfate concentration in the solvent control group is calculated as, for example, a ratio of the area under a curve of the indoxyl sulfate concentration, and thus, the efficacy of each compound in vivo can be compared.
The indoxyl sulfate concentrations in plasma obtained by using the compounds of the respective examples shown in Table 14 below were measured by the above-described method to evaluate the plasma indoxyl sulfate suppressing effect.

| SMILES | IC50 (Bacteroides) | IC50 [1] | Plasma Indoxyl Sulfate Reduction Effect in Male BALB/c Mouse (Indoxyl sulfate reduction effect in plasma 6 hours after administration of L-tryptophan: ED75-, mg/kg) (plasma indoxyl sulfate) |
| --- | --- | --- | --- |
| CC[C@@](C)(NC(=O)c1cc(Cl)c(N)cc1OC)C(=O)O [Compound of Example 10, (−)-N-(4-Amino-5-chloro-2-methoxybenzoyl)-D-isovaline] | < 3000 nM | 1530 nM | 1 mg/kg |
| CCCOc1cc(N)c(Cl)cc1C(=O)N[C@](C)(CC)C(=O)O [Compound of Example 25, (−)-N-(4-Amino-5-chloro-2-propoxybenzoyl)-D-isovaline] | < 3000 nM | 40 nM | 1 mg/kg |
| CCCOc1cc(N)c(F)cc1C(=O)N[C@](C)(CC)C(=O)O [Compound of Example 27, (−)-N-(4-Amino-5-fluoro-2-propoxybenzoyl)-D-isovaline] | < 3000 nM | 90 nM | 1 mg/kg |
| CCOc1cc(N)c(Br)cc1C(=O)N[C@](C)(CC)C(=O)O [Compound of Example 21, (−)-N-(4-Amino-5-bromo-2-ethoxybenzoyl)-D-isovaline] | < 3000 nM | 100 nM | 1 mg/kg |

— US10925848B2, “Amide derivative” (Daiichi Sankyo Company, Limited, priority 2017, dated 2021)
